Data as given in ChEMBL document CHEMBL1201862, “PubChem BioAssay data set” (2004).
Active and inactive are the calls of the source. Cut-off read from the data, not from the text of the source, for most assays here: actives have a measured EC50 and inactives only a lower limit.

What was measured:
cells = format: functional, cell-based
[1] = luciferase reporter signal reduction – luminescence, H4-C neuroglioblastoma cells, dose response (AID 2458); format: functional, cell-based;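 note: H4 neuroglioblastoma cells stably carrying a luciferase reporter gene fusion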
[2] = inhibitors of firefly luciferase expression or activity, dose response, H4 neuroglioma cells, luminescence (AID 1990); format: functional, cell-based
[3] = inhibitors of SNCA 5'UTR-driven reporter translation, confirmation, H4 neuroglioma cells, luminescence (AID 1988); format: functional, cell-based
[4] = molecular target: T1, Microphthalmia-associated transcription factor (Homo sapiens, UniProt O75030); test: TRPM1 promoter luciferase signal decrease, dose response, MITF inhibitor project, cell-based, SK-MEL-5, cherry-picked, set 3 (AID 493073); format: functional
T1 sequence (O75030 whole entry): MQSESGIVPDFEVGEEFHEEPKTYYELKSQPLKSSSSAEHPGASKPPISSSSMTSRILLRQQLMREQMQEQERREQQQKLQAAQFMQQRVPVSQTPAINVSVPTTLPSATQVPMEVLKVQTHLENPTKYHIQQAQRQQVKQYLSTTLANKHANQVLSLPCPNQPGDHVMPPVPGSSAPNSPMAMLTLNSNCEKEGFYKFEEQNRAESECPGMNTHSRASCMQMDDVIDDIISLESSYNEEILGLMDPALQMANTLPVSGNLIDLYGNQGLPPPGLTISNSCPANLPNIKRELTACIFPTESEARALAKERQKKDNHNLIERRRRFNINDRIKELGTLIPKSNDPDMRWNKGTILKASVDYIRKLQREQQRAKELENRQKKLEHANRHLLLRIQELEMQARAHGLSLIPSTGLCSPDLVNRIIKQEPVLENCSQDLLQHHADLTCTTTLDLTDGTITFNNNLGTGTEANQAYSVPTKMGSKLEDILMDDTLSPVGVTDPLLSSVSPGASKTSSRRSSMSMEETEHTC

[5] = inhibitors of SNCA 5'UTR-driven translation, confirmation, luminescence, H4 neuroglioblastoma cells, dose confirmation (AID 2454); format: functional, cell-based;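 note: H4 neuroglioblastoma cells carrying an alpha-synuclein 5'UTR luciferase reporter; potency for inhibition of the luciferase signal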
[6] = Luminescence Cell-Based Dose Response HTS to Identify Inhibitors of 5'UTR Stem-Loop Driven Prion Protein mRNA Translation in H4 Neuroglioblastoma Cells. [Related pubchem assays: 1827 (Project Summary), 1813 (Primary HTS)]; format: functional
Large T antigen = Large T antigen (Simian virus 40, UniProt P03070); format: functional, Betapolyomavirus macacae;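 note: Confirmatory-stage PubChem screen for compounds that inhibit SV40 T antigen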
Sequence of Large T antigen (P03070 whole entry): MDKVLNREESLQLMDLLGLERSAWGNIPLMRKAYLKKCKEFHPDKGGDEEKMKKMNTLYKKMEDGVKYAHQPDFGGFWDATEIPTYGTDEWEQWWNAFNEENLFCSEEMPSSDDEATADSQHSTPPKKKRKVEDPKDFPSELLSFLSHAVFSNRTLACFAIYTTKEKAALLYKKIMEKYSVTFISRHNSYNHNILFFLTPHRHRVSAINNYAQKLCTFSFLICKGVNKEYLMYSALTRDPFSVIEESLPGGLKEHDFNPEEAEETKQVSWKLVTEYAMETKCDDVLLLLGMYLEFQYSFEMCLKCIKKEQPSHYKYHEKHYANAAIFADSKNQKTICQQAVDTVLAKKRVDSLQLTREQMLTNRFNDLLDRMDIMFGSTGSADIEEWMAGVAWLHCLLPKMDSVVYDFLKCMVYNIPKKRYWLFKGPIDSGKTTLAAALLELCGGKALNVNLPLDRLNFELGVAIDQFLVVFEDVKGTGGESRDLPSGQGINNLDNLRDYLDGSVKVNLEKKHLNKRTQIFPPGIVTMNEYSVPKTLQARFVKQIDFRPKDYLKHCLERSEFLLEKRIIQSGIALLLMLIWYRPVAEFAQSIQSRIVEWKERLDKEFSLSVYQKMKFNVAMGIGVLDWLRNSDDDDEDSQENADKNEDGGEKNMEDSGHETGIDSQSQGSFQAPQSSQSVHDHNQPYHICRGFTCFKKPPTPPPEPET

HeLa = test: HeLa cell cytotoxicity, dose response, cytotoxicity control, 24 h, cherry-picked samples (AID 504726); format: functional, cell-based; settings: Homo sapiens;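 note: potency for cytotoxicity as loss of luminescence signal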
[7] = cytotoxicity in HEK-293T cells, dose response, cytotoxicity control for TCR NF-kB inhibitor project, luminescence, T-cell screen hits (AID 489026); format: functional, cell-based;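 note: cells exposed to compound about 14 hours before the viability readout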
[8] = A Cell Based Secondary Assay To Explore Cytotoxicity of Compounds that Sensitize Mycobacterium Tuberculosis to Beta-Lactam Antibiotics.; format: functional

Structure (SMILES)	EC50 (cells)	EC50 [1]	EC50 [2]	EC50 [3]	EC50 [5]	EC50 [6]	AC50 (HeLa)	further results
Nc1ccc(-c2ncc(-c3ccccc3)o2)cc1	178 nM (active)	44 nM (active)	< 100 nM (active)	< 100 nM (active)	70 nM (active)	< 100 nM (active)		AC50 [4]: 171 nM (active)
Cc1cc(N)ccc1N=Nc1c(C)n(C)n(-c2ccccc2)c1=O							285000 nM (active)	IC50 (Large T antigen): 33900 nM (active)
COc1cc(C(=O)N2CCN(c3cc(Cl)ccc3Cl)CC2)cc(OC)c1OC	457 nM (active)	352 nM (active)	148 nM (active)	< 100 nM (active)	575 nM (active)	164 nM (active)		IC50 [7]: > 80000 nM (inactive)
CCCc1nc(SC)nc(O)c1C							81700 nM (active)	
CC(C)(C)c1ccc(OCc2ccc(C(=O)N/N=C3\CC4CC=CC34)cc2)cc1 (stereo not drawn)								CC50 [8]: > 40000 nM (active)
